# Data taken from patent publication US4277474A, “Treatment of allergic symptoms with propanone derivatives” (Nippon Zoki Pharmaceutical Co., Ltd., priority 1978, dated 1981).
# Structures can show the parent of a compound that is named as a salt. Where two headings read alike, the source gives them in different places.
# Test system: Peritoneal cavity cells
# Assay: Inhibitory effect on histamine release from sensitized peritoneal cavity cells
# Assay type: cell-based, rat (Wistar-strain)
# Settings: for inhibition at 50 µM / inhibition at 100 µM: read-out: Inhibitory effect on histamine release; for inhibition at 200 µM: 0.2 mM
# Description: The inhibitory effect on histamine release of the compounds according to the present invention was investigated as follows. […] These cells were suspended in a phosphoric acid buffer solution (containing 0.1% of gelatin) and each 0.5 ml portion of this suspension was taken in a polyethylene tube. 1 ml each of solutions of various concentrations of test compound and 0.5 ml of 200 μg/ml of ovalbumin solution were added therein. They were incubated for 20 minutes at 37° C. to measure the histamine release rate. The amount of histamine was measured by a modified Shore method using fluorescence.
# [1] = Rattus norvegicus, 0.05 mM, average ± S.E. of 3 or 4 experiments
SMILES,inhibition at 50 µM [1] [%],"inhibition at 100 µM (Rattus norvegicus, 0.1 mM) [%]",also measured
"CC1CCN(CC(C)C(=O)c2ccc3ccccc3c2)CC1 (stereo not drawn) [Example 23, 2-methyl-3-(4-methylpiperidino)-β-propionaphthone hydrochloride]",21.4 ± 2.4,65.8,–
"COc1ccc(C(=O)C(C)CN2CCCCC2)cc1Cl (stereo not shown) [Example 49, 3'-chloro-4'-methoxy-2-methyl-3-piperidinopropiophenone hydrochloride]",–,38,–
"CCCc1ccc(C(=O)C(C)CN2CCCCC2)cc1 (stereo not shown) [Example 36, 4'-n-propyl-2-methyl-3-piperidinopropiophenone hydrochloride]",23.6 ± 7.7,–,–
"O=C(CCN1CCCCC1)c1ccc2ccccc2c1 [Example 31, 3-piperidino-β-propionaphthone hydrochloride]",–,–,inhibition at 50 µM (Rattus norvegicus): 53.4 ± 9.1%; inhibition at 100 µM (Rattus norvegicus): 89.6%
"CC(CN1CCC(Cc2ccccc2)CC1)C(=O)c1ccc2ccccc2c1 (stereo not drawn) [Example 29, 2-methyl-3-(4-benzylpiperidino)-β-propionaphthone hydrochloride]",61 ± 3.6,98.7,–
"CCC(CN1CCCCC1)C(=O)c1ccc2ccccc2c1 (stereo not drawn) [Example 32, 2-ethyl-3-piperidino-β-propionaphthone hydrochloride]",27.2 ± 8.1,42,–
"Cc1ccc(C(=O)C(CN2CCCCC2)c2ccccc2)cc1 (stereo not shown) [Example 27, 4'-methyl-2-phenyl-3-piperidinopropiophenone hydrochloride]",–,–,inhibition at 200 µM (Rattus norvegicus): 78.5%
"CCCCCCc1ccc(C(=O)C(C)CN2CCCCC2)cc1 (stereo not shown) [Example 22, 4'-hexyl-2-methyl-3-piperidinopropiophenone hydrochloride]",82 ± 1.7,87.2,–
"CC(CN1CCCCC1)C(=O)c1cccc2ccccc12 (stereo not drawn) [Example 19, 2-methyl-3-piperidino-α-propionaphthone hydrochloride]",–,–,inhibition at 200 µM (Rattus norvegicus): 100%
"CC(CN1CCCCC1C)C(=O)c1ccc2ccccc2c1 (stereo not drawn) [Example 28, 2-methyl-3-(2-methylpiperidino)-β-propionaphthone hydrochloride]",18.5 ± 6.5,40.7,–
"CC(CN1CCCCC1)C(=O)c1ccc2c(c1)CCC2 (stereo not shown) [Example 33, 1-(5-indanyl)-2-methyl-3-piperidinopropanone hydrochloride]",14.4 ± 2.6,–,–
"Cc1ccc(C(=O)C(C)CN2CCN(Cc3ccccc3)CC2)cc1 (stereo not shown) [Example 16, 2,4'-dimethyl-3-(4-benzylpiperazino)propiophenone dihydrochloride]",–,–,inhibition at 200 µM (Rattus norvegicus): 72.4%
"O=C(O)c1cc(=O)c2c(OCC(O)COc3cccc4oc(C(=O)O)cc(=O)c34)cccc2o1 [DSCG, disodium chromoglicate, reference compound]",29 ± 6.1,70,"Histamine release rate (0.01 mM): 36.8%; Net release rate (0.01 mM, release not caused by antigen-antibody reaction deducted): 22.9%; inhibition at 10 µM (Rattus norvegicus, 0.01 mM): 30%"
"Cc1ccc(C(=O)CCN2CCCCC2)cc1C [Example 30, 3',4'-dimethyl-3-piperidinopropiophenone hydrochloride]",19.4 ± 7.8,50.3,–
"CC1CCCN(CC(C)C(=O)c2ccc3ccccc3c2)C1 (stereo not drawn) [Example 10, 2-methyl-3-(3-methylpiperidino)-β-propionaphthone hydrochloride]",18 ± 5.4,49.9,–
"CC(CN1CCCCC1)C(=O)c1ccc(Cl)c(Cl)c1 (stereo not shown) [Example 50, 3',4'-dichloro-2-methyl-3-piperidinopropiophenone hydrochloride]",–,73,–
"Cc1ccc2cc(C(=O)C(C)CN3CCCCC3)ccc2c1 (stereo not shown) [Example 51, 2,6'-dimethyl-3-piperidino-2'-propionaphthone hydrochloride]",–,37,–
"COc1ccc2cc(C(=O)CCN3CCCCC3)ccc2c1 [Example 39, 6'-methoxy-3-piperidino-2'-propionaphthone hydrochloride]",–,85,–
"COc1ccc2cc(C(=O)C(C)CN3CCCCC3)ccc2c1 (stereo not shown) [Example 40, 6'-methoxy-2-methyl-3-piperidino-2'-propionaphthone hydrochloride]",–,84,–
